Source: US9999616B2 (ZENITH EPIGENETICS LTD., priority 2013, dated 2018)

Experiments:
[1] = system: c-myc in Human AML MV4-11 cells; assay: Inhibition of cMYC expression (mRNA, real-time PCR) in MV4-11 cells; format: cell-based; details: 3 h treatment, cMYC mRNA by real-time PCR
Summary of the method: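 MV4-11 cells in IMDM with 10% FBS were treated with increasing compound concentrations (DMSO 0.1%) for 3 h at 37 °C, in triplicate. Isolated mRNA was quantified by one-step TaqMan RT-qPCR, cMYC Ct normalized to cyclophilin, and fold expression given relative to DMSO control.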

Human AML MV-4-11 cells = assay: Inhibition of cell proliferation in MV4-11 cells (CellTiter Aqueous One); format: cell-based; details: MV4-11, 72 h
Summary of the method: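 MV4-11 cells, 5×10^4 per well in IMDM with 10% FBS, were exposed to increasing compound concentrations or 0.1% DMSO for 72 h at 37 °C in triplicate. Viability was read by MTS (CellTiter Aqueous One) absorbance at 490 nm after 3-4 h. IC50 was derived from background-corrected signal relative to DMSO.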

hIL-6 mRNA = assay: Inhibition of hIL-6 mRNA transcription in LPS-stimulated U937 macrophages; format: cell-based, Human; details: Homo sapiens, U-937, PMA-differentiated U937 cells, 1 h pretreatment, LPS 3 h, read-out: IL-6 activity
Summary of the method: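 PMA-differentiated U937 macrophages (60 ng/mL PMA, 3 days) pretreated 1 h with compound in 0.1% DMSO, then stimulated with 1 ug/mL E. coli LPS for 3 h at 37° C. IL-6 mRNA quantified by one-step TaqMan qRT-PCR, normalized to cyclophilin; fold expression relative to control, triplicate wells.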

hIL-17 mRNA = assay: Inhibition of hIL-17 mRNA transcription in OKT3-stimulated peripheral blood mononuclear cells; format: cell-based; details: human PBMC, OKT3 stimulation 6 h, read-out: IL-17 Activity
Description: Human peripheral blood mononuclear cells were plated (2.0×10^5 cells per well) in a 96-well plate in 45 μL OpTimizer T Cell expansion media (Life Technologies) containing 20 ng/ml IL-2 and penicillin/streptomycin. The cells were treated with increasing concentrations of the test compound or DMSO (0.1%), and incubated at 37° C., 5% CO2 for 1 h before addition of 10× stock OKT3 antibody at 10 ug/ml in media. Triplicate wells were used for each concentration. Cells were incubated at 37° C., 5% CO2 for 6 h before the cells were harvested. At time of harvest, cells were pelleted by centrifugation at 800 rpm for 5 min. Cells were harvested using the mRNA Catcher PLUS kit according to manufacturer's instructions. The eluted mRNA was then used in a one-step quantitative real-time PCR reaction, using components of the RNA UltraSense™ One-Step Kit (Life Technologies) together with Applied Biosystems TaqMan® primer-probes for hIL-17 and Cyclophilin. Real-time PCR plates were run on a ViiA™7 real time PCR machine (Applied Biosystems), data was analyzed, normalizing the Ct values for hIL-17 to an internal control, prior to determining the fold induction of each unknown sample, relative to the control.

hApoA-1 mRNA = assay: Up-regulation of hApoA-1 mRNA transcription in Huh7 cells; format: cell-based; details: Homo sapiens, Huh-7, EC170 of hApoA-1 mRNA up-regulation, 48 h, read-out: ApoA-1 activity
Description: Huh7 cells (2.5×10^5 per well) were plated in a 96-well plate using 100 μL DMEM per well, (Gibco DMEM supplemented with penicillin/streptomycin and 10% FBS), 72 h before the addition of the compound. The cells are treated with increasing concentrations of the compound or DMSO (0.1%), and incubated at 37° C., 5% CO2 for 48 h. Spent media was removed from the Huh-7 cells and placed on ice for immediate use with the “LDH cytotoxicity assay Kit II” from Abcam. The cells remaining in the plate were rinsed with 100 μL PBS. Cells were harvested using the mRNA Catcher PLUS kit according to manufacturer's instructions. The eluted mRNA was then used in a one-step quantitative real-time PCR reaction, using components of the RNA UltraSense™ One-Step Kit (Life Technologies) together with Applied Biosystems TaqMan® primer-probes for hApoA-1 and Cyclophilin. Real-time PCR plates were run on a ViiA™7 real time PCR machine (Applied Biosystems), data was analyzed, normalizing the Ct values for hApoA-1 to an internal control, prior to determining the fold induction of each unknown sample, relative to the control.

[2] = molecular target: Brd4 bromodomain 1 (BRD4(1)) (Homo sapiens, UniProt O60885); assay: Inhibition of tetra-acetylated histone H4 binding to Brd4 bromodomain 1, measured by FRET (HTRF); set-up: made in house; host or cells: E. coli BL21(DE3); details: 2 h at room temperature
Summary of the method: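 N-terminally His-tagged bromodomain (200 nM), expressed in E. coli and purified by Ni affinity and size exclusion, was incubated with biotinylated tetra-acetylated H4 peptide (25-50 nM), Eu-cryptate streptavidin and XL665 anti-His in HEPES pH 7.4 buffer with 0.2% DMSO. Reactions ran 2 h at room temperature. IC50 came from the 665/620 nm fluorescence decrease.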

Compound | IC50 [1] | IC50 (Human AML MV-4-11 cells) | IC50 (hIL-6 mRNA) | IC50 (hIL-17 mRNA) | IC50 [2] | melting point | EC170 (hApoA-1 mRNA)
Cc1nc2c(-c3c(C)cncc3C)cc(-c3c(C)noc3C)cc2[nH]1 [Example Compound 97, 4-(4-(3,5-dimethyl-pyridin-4-yl)-2-methyl-1H-benzo[d]imidazol-6-yl)-3,5-dimethyl isoxazole] | 300 to 3000 nM | 300 to 3000 nM | ≤ 300 nM | 300 to 3000 nM | ≤ 300 nM |  | ≤ 0.3 µM
Cc1nc2c(-c3cn(C)nc3C)cc(-c3c(C)noc3C)cc2[nH]1 [Example Compound 60, 4-(4-(1,3-dimethyl-1H-pyrazol-4-yl)-2-methyl-1H-benzo[d]imidazol-6-yl)-3,5-dimethyl-isoxazole] | ≤ 300 nM | 300 to 3000 nM | ≤ 300 nM | 300 to 3000 nM | ≤ 300 nM |  | ≤ 0.3 µM
Cc1noc(C)c1-c1cc(-c2cccc(C#N)c2C)c2nc[nH]c2c1 [Example Compound 57, 3-(6-(3,5-dimethyl-isoxazol-4-yl)-1H-benzo[d]imidazol-4-yl)-2-methyl-benzonitrile] | ≤ 300 nM | ≤ 300 nM | ≤ 300 nM | 300 to 3000 nM | ≤ 300 nM |  | ≤ 0.3 µM
Cc1noc(C)c1-c1nc(NCc2ccccc2)c2ccccc2n1 [Example Compound 5, N-benzyl-2-(3,5-dimethylisoxazol-4-yl)quinazolin-4-amine] |  |  |  |  | 3000 to 30000 nM |  | ≤ 0.3 µM
Cc1nn(C)c(C)c1CNc1cc(-c2c(C)noc2C)cc2[nH]cnc12 [Example Compound 37, 6-(3,5-dimethyl-isoxazol-4-yl)-N-((1,3,5-trimethyl-1H-pyrazol-4-yl)methyl)-1H-benzo[d] imidazol-4-amine] | 300 to 3000 nM | 300 to 3000 nM | 300 to 3000 nM | 300 to 3000 nM | ≤ 300 nM |  | ≤ 0.3 µM
Cc1noc(C)c1-c1cc(NCc2ccccc2)c2nc[nH]c2c1 [Example Compound 4] | 300 to 3000 nM | 300 to 3000 nM | 300 to 3000 nM | 300 to 3000 nM | ≤ 300 nM |  | 3 to 30 µM
CCOc1nc2c(-c3cccnc3C)cc(-c3c(C)noc3C)cc2[nH]1 [Example Compound 81, 4-(2-ethoxy-4-(2-methylpyridin-3-yl)-1H-benzo[d]imidazol-6-yl)-3,5-dimethyl isoxazole] | ≤ 300 nM | ≤ 300 nM | 300 to 3000 nM | ≤ 300 nM | ≤ 300 nM |  | 
Cc1nc2c(-c3ccc4sncc4c3)cc(-c3c(C)noc3C)cc2[nH]1 [Example Compound 137, 4-(4-(benzo[d]isothiazol-5-yl)-2-methyl-1H-benzo[d]imidazol-6-yl)-3,5-dimethyl isoxazole] | 300 to 3000 nM | 300 to 3000 nM | 300 to 3000 nM | 300 to 3000 nM | ≤ 300 nM |  | 

Further lines, with some results ahead:

IC50 [1] | IC50 (Human AML MV-4-11 cells) | IC50 (hIL-6 mRNA) | IC50 (hIL-17 mRNA) | IC50 [2] | melting point | Compound | EC170 (hApoA-1 mRNA)
300 to 3000 nM | 3000 to 30000 nM |  |  | ≤ 300 nM | 133 to 135 °C | Cc1noc(C)c1-c1cc(-c2c(C)noc2C)c2nc[nH]c2c1Br [Example Compound 192, 4,4′-(7-bromo-1H-benzo[d]imidazole-4,6-diyl)bis(3,5-dimethylisoxazole)] | 
≤ 300 nM | ≤ 300 nM |  |  | ≤ 300 nM | 238 to 240 °C | Cc1ncccc1-c1cc(-c2c(C)noc2C)cc2[nH]c(N3CCN(C)CC3)nc12 [Example Compound 183, 3,5-dimethyl-4-(2-(4-methylpiperazin-1-yl)-4-(2-methylpyridin-3-yl)-1H-benzo[d]imidazol-6-yl)isoxazole] | 
≤ 300 nM | ≤ 300 nM |  |  | 300 to 3000 nM | 179 to 182 °C | Cc1noc(C)c1-c1cc(-c2cccc(C#N)c2C)c2nc(N3CCN(C)CC3)[nH]c2c1 [Example Compound 202, 3-(6-(3,5-dimethylisoxazol-4-yl)-2-(4-methylpiperazin-1-yl)-1H-benzo[d]imidazol-4-yl)-2-methylbenzonitrile] | 
300 to 3000 nM | 300 to 3000 nM |  |  | 300 to 3000 nM | 137 to 141 °C | Cc1ccncc1-c1cc(-c2c(C)noc2C)cc2[nH]c(N3CCOCC3)nc12 [Example Compound 196, 4-(6-(3,5-dimethylisoxazol-4-yl)-4-(4-methylpyridin-3-yl)-1H-benzo[d]imidazol-2-yl)morpholine] | 
≤ 300 nM | ≤ 300 nM | ≤ 300 nM |  | ≤ 300 nM | 195 to 197 °C | Cc1noc(C)c1-c1cc(-c2c(C)nn(C)c2C)c2nc(N3CCN(C)CC3)[nH]c2c1 [Example Compound 181, 3,5-dimethyl-4-(2-(4-methylpiperazin-1-yl)-4-(1,3,5-trimethyl-1H-pyrazol-4-yl)-1H benzo[d]imidazol-6-yl)isoxazole] | 
300 to 3000 nM | 300 to 3000 nM |  |  | ≤ 300 nM | 254 to 256 °C | Cc1noc(C)c1-c1cc(-c2c(C)nn(C)c2C)c2[nH]c(S(C)(=O)=O)nc2c1 [Example Compound 195, 3,5-dimethyl-4-(2-(methylsulfonyl)-4-(1,3,5-trimethyl-1H-pyrazol-4-yl)-1H-benzo[d]imidazol-6-yl)isoxazole] | 
300 to 3000 nM | 300 to 3000 nM |  |  | ≤ 300 nM | 228 to 230 °C | Cc1noc(C)c1-c1cc(-c2c(C)noc2C)c2c(C)n[nH]c2c1 [Example Compound 179, 4,4′-(3-methyl-1H-indazole-4,6-diyl)bis(3,5-dimethylisoxazole)] | 
300 to 3000 nM | 300 to 3000 nM |  |  | ≤ 300 nM | 133 to 135 °C | Cc1ccc(C(N)=O)cc1-c1cc(-c2c(C)noc2C)cc2[nH]c(N3CCN(C)CC3)nc12 [Example Compound 189, 3-(6-(3,5-dimethylisoxazol-4-yl)-2-(4-methylpiperazin-1-yl)-1H-benzo[d]imidazol-4-yl)-4-methylbenzamide] | 
300 to 3000 nM | 3000 to 30000 nM | 300 to 3000 nM | ≤ 300 nM | 300 to 3000 nM |  | Cc1nc2c(-c3c(C)noc3C)cc(-c3c(C)cnn3C)cc2[nH]1 [Example Compound 178, 4-(6-(1,4-dimethyl-1H-pyrazol-5-yl)-2-methyl-1H-benzo[d]imidazol-4-yl)-3,5-dimethylisoxazole] | 
≤ 300 nM | ≤ 300 nM |  |  | ≤ 300 nM | 133 to 135 °C | Cc1ccc(C#N)cc1-c1cc(-c2c(C)noc2C)cc2[nH]c(N3CCN(C)CC3)nc12 [Example Compound 186, 3-(6-(3,5-dimethylisoxazol-4-yl)-2-(4-methylpiperazin-1-yl)-1H-benzo[d]imidazol-4-yl)-4-methylbenzonitrile] | 
 | 300 to 3000 nM |  |  | ≤ 300 nM | 242 to 244 °C | Cc1noc(C)c1-c1cc(-c2c(C)nn(C)c2C)c2[nH]c([S+](C)[O-])nc2c1 (stereo not drawn) [Example Compound 194, 3,5-dimethyl-4-(2-(methylsulfinyl)-4-(1,3,5-trimethyl-1H-pyrazol-4-yl)-1H-benzo[d]imidazol-6-yl)isoxazole] | 
